Here are results for 5 compounds from US20130310256A1, “HERBICIDAL COMPOSITIONS COMPRISING 4-AMINO-3-CHLORO-5-FLUORO-6-(4-CHLORO-2-FLUORO-3-METHOXYPHENYL) PYRIDINE-2-CARBOXYLIC ACID OR A DERIVATIVE THEREOF AND VLCFA AND LIPID SYNTHESIS INHIBITING HERBICIDES” (DOW AGROSCIENCES LLC, priority 2008, published 2013).

Each structure is given as a SMILES string.

The test system of one experiment is CYPIR. Description: Example I: postemergence foliar-applied weed control, greenhouse. Type of experiment: in vivo, Cyperus iria L. (rice flatsedge). The essentials:
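Plants grown in loam/sandy loam–calcareous grit soil (80:20) in greenhouse, 14 hr photoperiod, about 29° C. day/26° C. night, treated postemergence at first to fourth true leaf stage. Foliar spray at 187 L/ha with 1.25% (v/v) crop oil concentrate; Compound A dosed on acid equivalent basis, partners on active ingredient basis.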

In the next experiment the test system is ECHCG. Description: Example II: in-water applied weed control, transplanted paddy rice, greenhouse. The class given is in vivo, Echinochloa crus-galli (L.) Beauv. (barnyardgrass). The method, then:
Weed seeds or nutlets of the desired test plant species were planted in puddled soil (mud) prepared by mixing a shredded, non-sterilized mineral soil (50.5 percent silt, 25.5 percent clay, and 24 percent sand, with a pH of about 7.6 and an organic matter content of about 2.9 percent) and water at a 1:1 volumetric ratio. The prepared mud was dispensed in 365 mL aliquots into 16-ounce (oz.) non-perforated plastic pots with a surface area of 86.59 square centimeters (cm^2) leaving a headspace of 3 centimeters (cm) in each pot. Mud was allowed to dry overnight prior to planting or transplanting. Rice seeds were planted in Sun Gro MetroMix® 306 planting mixture, which typically has a pH of 6.0 to 6.8 and an organic matter content of about 30 percent, in plastic plug trays. Seedlings at the second or third leaf stage of growth were transplanted into 840 mL of mud contained in 32-oz. non-perforated plastic pots with a surface area of 86.59 cm^2 4 days prior to herbicide application. The paddy was created by filling the headspace of the pots with 2.5 to 3 cm of water. When required to ensure good germination and healthy plants, a fungicide treatment and/or other chemical or physical treatment was applied. The plants were grown for 4-22 days in a greenhouse with an approximate 14 hr photoperiod which was maintained at about 29′C during the day and 26° C. during the night. Nutrients were added as Osmocote® (19:6:12, N:P:K+ minor nutrients) at 2 g per 16-oz. pot and 4 g per 32-oz. pot. Water was added on a regular basis to maintain the paddy flood, and supplemental lighting was provided with overhead metal halide 1000-Watt lamps as necessary. The plants were employed for testing when they reached the first through fourth true leaf stage.
Treatments consisted of the acid or esters of 4-amino-3-chloro-5-fluoro-6-(4-chloro-2-fluoro-3-methoxy-phenyl)pyridine-2-carboxylic acid (compound A) each formulated as an SC (suspension concentrate) and various herbicidal components alone and in combination. Forms of compound A were applied on an acid equivalent basis.
The herbicidal components were applied on an active ingredient basis and included very long chain fatty acid (VLCFA) synthesis-inhibiting and fatty acid/lipid synthesis-inhibiting herbicides acetochlor (technical grade material), acetochlor+dichlormid formulateded as Topnotch®, pretilachlor (technical grade material), butachlor formulated as Butachlor EC, fentrazamide formulated as Fentrazamide EC, thiobencarb formulated as Bolero® 8EC, cafenstrole formulated as Himeadow® WP or Lapost® Flowable, benfuresate formulated as Full Shot®, anilofos (technical grade material), mefenacet (technical grade material), molinate (technical grade material), and thenylchlor (technical grade material).
Treatment requirements for each compound or herbicidal component were calculated based upon the rates being tested, the concentration of active ingredient or acid equivalent in the formulation, an application volume of 2 mL per component per pot, and an application area of 86.59 cm^2 per pot.
For formulated compounds, a measured amount was placed in an individual 100 or 200 mL glass vial and was dissolved in a volume of 1.25% (v/v) Agri-Dex® crop oil concentrate to obtain application solutions.
For technical grade compounds, a weighed amount was placed in an individual 100 to 200 mL glass vial and was dissolved in a volume of acetone to obtain concentrated stock solutions. […] The concentrated stock solutions obtained were diluted with an equivalent volume of an aqueous mixture containing 2.5% (v/v) crop oil concentrate so that the final application solutions contained 1.25% (v/v) crop oil concentrate.
Applications were made by injecting with a pipetter appropriate amounts of the application solutions, individually and sequentially, into the aqueous layer of the paddy. Control plants were treated in the same manner with the solvent blank. […]

For the compound `CCS(=O)(=O)Oc1ccc2c(c1)C(C)(C)CO2` [Benfuresate, 2,3-dihydro-3,3-dimethyl-5-benzofuranyl ethanesulfonate], the “Visual Weed Control (%) - 22 DAA CYPIR Obs” value came out at 0% with CYPIR (150 gai/ha, foliar) and 10% in the experiment on CYPIR (300 gai/ha, foliar). For the same compound, the “Visual Weed Control ECHCG Obs” value worked out at 0% in the experiment with ECHCG (75 gai/ha (Full Slot), 22 DAA) and 0% in the experiment with ECHCG (150 gai/ha (Full Slot), 22 DAA).
As for `CCN(CC)C(=O)n1cnc(S(=O)(=O)c2c(C)cc(C)cc2C)n1` [Cafenstrole, N,N-diethyl-3-[(2,4,6-trimethylphenyl)sulfonyl]-1H-1,2,4-triazole-1-carboxamide], the “Visual Weed Control Obs” value in the experiment with CYPIR (21 DAA, 26.25 gai/ha Lapost Flowable) turned out to be 0%; in the experiment with CYPIR (21 DAA, 52.5 gai/ha Lapost Flowable) it was 0%; in the experiment on CYPIR (21 DAA, 105 gai/ha Lapost Flowable), 0%. For the same compound, the “Visual Weed Control ECHCG Obs” value in the experiment on ECHCG (52.5 gai/ha (Himeadow WP), 21 DAA) was found to be 20%; in the experiment with ECHCG (105 gai/ha (Himeadow WP), 21 DAA), 25%.
`COc1c(Cl)ccc(-c2nc(C(=O)O)c(Cl)c(N)c2F)c1F` [Compound A Acid, 4-amino-3-chloro-6-(4-chloro-2-fluoro-3-methoxyphenyl)-5-fluoropyridine-2-carboxylic acid]: in the experiment with CYPIR (5.3 gae/ha, foliar), the “Visual Weed Control (%) - 22 DAA CYPIR Obs” value stood at 60%. For the same compound, the “Visual Weed Control Obs” value is on record as 40% in the experiment with CYPIR (20 DAA, 4.38 gae/ha) and 70% in the experiment on CYPIR (21 DAA, 4.38 gae/ha). In addition, the “Visual Weed Control (%) - 21 DAA ECHCG Obs” value in the experiment with ECHCG (8.75 gae/ha) is on record as 0%; in the experiment with ECHCG (17.5 gae/ha), 0%; with ECHCG (35 gae/ha) it was 20%. Moreover, the entries for the “Visual Weed Control (%) - 22 DAA ECHCG Obs” value with ECHCG (8.75 gae/ha), in the experiment on ECHCG (17.5 gae/ha) and in the experiment with ECHCG (35 gae/ha) were 0%, 15% and 15%, respectively. Besides, the “Visual Weed Control ECHCG Obs” value with ECHCG (8.75 gae/ha, 21 DAA) worked out at 0%; with ECHCG (17.5 gae/ha, 21 DAA), 0%; in the experiment with ECHCG (35 gae/ha, 21 DAA) it was 20%; in the experiment on ECHCG (42.4 gae/ha, 22 DAA), 30%.
As for `COc1c(Cl)ccc(-c2nc(C(=O)OCc3ccccc3)c(Cl)c(N)c2F)c1F` [Compound A Benzyl Ester, benzyl ester of 4-amino-3-chloro-5-fluoro-6-(4-chloro-2-fluoro-3-methoxy-phenyl)pyridine-2-carboxylic acid], the “Visual Weed Control (%) - 21 DAA CYPIR Obs” value with CYPIR (8 gae/ha, foliar) is given as 30%. For the same compound, the “Visual Weed Control (%) - 22 DAA CYPIR Obs” value in the experiment with CYPIR (16 gae/ha, foliar) came out at 60%. In the experiment with CYPIR (20 DAA, 4.38 gae/ha), the “Visual Weed Control Obs” value worked out at 80%. Besides, the “Visual Weed Control (%) - 21 DAA ECHCG Obs” value with ECHCG (4.38 gae/ha) is given as 15%; in the experiment with ECHCG (8.75 gae/ha), 20%; in the experiment with ECHCG (17.5 gae/ha) it was 75%. The “Visual Weed Control (%) - 22 DAA ECHCG Obs” value with ECHCG (4.38 gae/ha) is 10%; in the experiment with ECHCG (8.75 gae/ha), 25%; in the experiment with ECHCG (17.5 gae/ha), 60%. Moreover, the “Visual Weed Control ECHCG Obs” value with ECHCG (4.38 gae/ha, 21 DAA) is listed as 15%; with ECHCG (8 gae/ha, 19 DAA) it was 30%; in the experiment on ECHCG (8.75 gae/ha, 21 DAA), 20%; in the experiment with ECHCG (16 gae/ha, 19 DAA) it was 20%; in the experiment on ECHCG (17.5 gae/ha, 21 DAA), 75%; with ECHCG (32 gae/ha, 19 DAA), 40%.
Consider `CCCOCCN(C(=O)CCl)c1c(CC)cccc1CC` [Pretilachlor, 2-chloro-N-(2,6-diethylphenyl)-N-(2-propoxyethyl)acetamide], for which the “Visual Weed Control Obs” value in the experiment with CYPIR (20 DAA, 37.5 gai/ha) is reported as 0%; in the experiment on CYPIR (20 DAA, 75 gai/ha) it was 0%; with CYPIR (20 DAA, 150 gai/ha), 0%.
